{"source": "patent US5686458A", "about": "“Quinazoline deriviates for treating peptic ulcer” (Yuhan Corporation, priority 1992, dated 1997)", "system": "gastric secretion", "assay": "Inhibition of Gastric Secretion, pylorus-ligated rats (Experiment 2)", "type": "in vivo, Sprague-Dawley rats", "conditions": "relative to omeprazole (equation III), 20 mg/kg intraduodenally, pylorus-ligated rats, 5 hours", "in_short": "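Sprague-Dawley rats (170±10 g, n=5/group), fasted 24 h, pylorus-ligated under ether; compounds given intraduodenally at 20 mg/kg in 30% aqueous PEG 400. Gastric juice collected after 5 h, volume and acidity measured; relative volume, acid concentration and acid output computed versus vehicle and omeprazole groups.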"}
{"compound": "COc1cccc2c(N3CCc4ccccc4C3C)nc(Nc3ccc(F)cc3C)nc12.Cl", "note": "(stereo not shown) [Example 34, 8-Methoxy-2-(4-Fluoro-2-Methyl-Phenylamino)-4-(1-Methyl-1,2,3,4-Tetrahydroisoquinoline-2-Yl)Quinazoline Hydrochloride]", "values": [{"measurement": "Relative Acid Output", "value": 0.97}]}
